Where two headings read alike, the source gives them in different places.
Key:
Type in all cases: in vivo
[1] = system: goosegrass (Eleusine indica); assay: Test C pre/postemergence; conditions: Preemergence
Excerpt: (§1) Seeds or nutlets of plant species selected from bermudagrass (Cynodon dactylon), Surinam grass (Brachiaria decumbens), cocklebur (Xanthium strumarium), corn (Zea mays), crabgrass (Digitaria sanguinalis), woolly cupgrass (Eriochloa villosa), giant foxtail (Setaria faberii), goosegrass (Eleusine indica), johnsongrass (Sorghum halepense), kochia (Kochia scoparia), lambsquarters (Chenopodium album), morningglory (Ipomoea coccinea), eastern black nightshade (Solanum ptycanthum), yellow nutsedge (Cyperus esculentus), pigweed (Amaranthus retroflexus), common ragweed (Ambrosia elatior), soybean (Glycine max), common (oilseed) sunflower (Helianthus annuus), and velvetleaf (Abutilon theophrasti) were planted and treated preemergence with test chemicals formulated in a non-phytotoxic solvent mixture which included a surfactant.
(§2) At the same time, plants selected from these crop and weed species and also winter barley (Hordeum vulgare), blackgrass (Alopecurus myosuroides), canarygrass (Phalaris minor), chickweed (Stellaria media), downy brome (Bromus tectorum), green foxtail (Setaria viridis), Italian ryegrass (Lolium multiflorum), wheat (Triticum aestivum), wild oat (Avena fatua) and windgrass (Apera spica-venti) were treated with postemergence applications of some of the test chemicals formulated in the same manner. Plants ranged in height from 2 to 18 cm (1- to 4-leaf stage) for postemergence treatments. Plant species in the flooded paddy test consisted of rice (Oryza sativa), umbrella sedge (Cyperus difformis), duck salad (Heteranthera limosa) and barnyardgrass (Echinochloa crus-galli) grown to the 2-leaf stage for testing. Treated plants and controls were maintained in a greenhouse for 12 to 14 days, after which time all species were compared to controls and visually evaluated. Plant response ratings, summarized in Table C, are based on a scale of 0 to 100 where 0 is no effect and 100 is complete control. A dash (-) response means no test result.

[2] = system: lambsquarters (Chenopodium album); assay: Test C pre/postemergence; conditions: Preemergence
Excerpt: as §1, §2

soybean (Glycine max) = assay: Test C pre/postemergence; conditions: Preemergence, scale 0 to 100, 0 no effect, 100 complete control
Excerpt: as §1, §2

corn (Zea mays) = assay: Test C pre/postemergence; conditions: Preemergence
Excerpt: as §1, §2

[3] = system: giant foxtail (Setaria faberi); assay: Test A pre/postemergence
How it was run: (§3)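 Seeds in loam–sand blend received preemergence directed soil spray and, concurrently, postemergence application (plants 2–10 cm, 1–2-leaf stage) of compound in non-phytotoxic solvent with surfactant. After about ten days in greenhouse, injury rated visually versus untreated controls, 0 (no effect) to 100 (complete control).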

[4] = system: morningglory (Ipomoea spp.); assay: Test A pre/postemergence; conditions: for pest or weed control at 125 g/ha / pest or weed control at 500 g/ha: Ipomoea, 240 h, read-out: Plant response rating, Morningglory
How it was run: as §3

[5] = system: velvetleaf (Abutilon theophrasti); assay: Test A pre/postemergence; conditions: for pest or weed control at 125 g/ha / pest or weed control at 500 g/ha: Abutilon theophrasti, 240 h, read-out: Plant response rating, Velvetleaf
How it was run: as §3

[6] = system: barnyardgrass (Echinochloa crus-galli); assay: Test A pre/postemergence
How it was run: as §3

[7] = system: redroot pigweed (Amaranthus retroflexus); assay: Test A pre/postemergence; conditions: for pest or weed control at 125 g/ha / pest or weed control at 500 g/ha: Amaranthus retroflexus, 240 h, read-out: Plant response rating, Pigweed
How it was run: as §3

[8] = system: crabgrass (Digitaria sanguinalis); assay: Test A pre/postemergence
How it was run: as §3

[9] = 16 g ai/ha, scale 0 to 100, 0 no effect, 100 complete control
[10] = 31 g ai/ha, scale 0 to 100, 0 no effect, 100 complete control
[11] = 62 g ai/ha, scale 0 to 100, 0 no effect, 100 complete control
[12] = Preemergence, 125 g ai/ha, 0 to 100 scale where 0 is no effect and 100 is complete control, approximately ten days
[13] = post-emergence, Postemergence, 125 g ai/ha, 0 to 100 scale (0 no effect, 100 complete control)
[14] = post-emergence, Postemergence, 500 g ai/ha, 0 to 100 scale (0 no effect, 100 complete control)
[15] = pre-emergence, Preemergence, 125 g ai/ha, 0 to 100 scale where 0 is no effect and 100 is complete control, approximately ten days
[16] = pre-emergence, Preemergence, 500 g ai/ha, 0 to 100 scale where 0 is no effect and 100 is complete control, approximately ten days
[17] = Postemergence, 500 g ai/ha, 0 to 100 scale (0 no effect, 100 complete control)
[18] = Postemergence, 125 g ai/ha, 0 to 100 scale (0 no effect, 100 complete control)
[19] = Preemergence, 500 g ai/ha, 0 to 100 scale where 0 is no effect and 100 is complete control, approximately ten days

For `Nc1nc(C2CC2)nc(C(=O)[O-])c1Cl.[Na+]` [Compound 77, 6-amino-5-chloro-2-cyclopropyl-4-pyrimidinecarboxylic acid monosodium salt], the pest or weed control at 31 g/ha ([1]; Eleusine indica, pre-emergence, 31 g ai/ha, scale 0 to 100, 0 no effect, 100 complete control, read-out: Plant response rating, Goosegrass) was 0%, the pest or weed control at 62 g/ha ([1]; Eleusine indica, pre-emergence, 62 g ai/ha, scale 0 to 100, 0 no effect, 100 complete control, read-out: Plant response rating, Goosegrass) was 0% and the “Plant response rating, Goosegrass” value [1, 9] was 0. For the same compound, the “Plant response rating, Goosegrass” value ([1]; 125 g ai/ha, scale 0 to 100) was 0, the “Plant response rating, Lambsquarters” value [2, 9] was 0 and the “Plant response rating, Lambsquarters” value [2, 10] was 0. The “Plant response rating, Lambsquarters” value ([2]; 125 g ai/ha, scale 0 to 100) was 40, the plant injury at 31 g/ha (soybean (Glycine max); Glycine max, pre-emergence, 31 g ai/ha, read-out: Plant response rating, Soybean) was 100% and the plant injury at 62 g/ha (soybean (Glycine max); Glycine max, pre-emergence, 62 g ai/ha, read-out: Plant response rating, Soybean) was 100%. For the same compound, the “Plant response rating, Soybean” value (soybean (Glycine max); 16 g ai/ha) was 40, the “Plant response rating, Corn” value (corn (Zea mays); [9]) was 0 and the “Plant response rating, Corn” value (corn (Zea mays); [10]) was 0. For the same compound, the “Plant response rating, Corn” value (corn (Zea mays); [11]) was 0, the “Plant response rating, Corn” value (corn (Zea mays); 125 g ai/ha, scale 0 to 100) was 35 and the “Plant response rating, Foxtail, Giant” value [3, 12] was 75. The pest or weed control at 125 g/ha ([3]; Setaria faberi, post-emergence, 240 h, Postemergence, 125 g ai/ha, 0 to 100 scale (0 no effect, 100 complete control), read-out: Plant response rating, Foxtail, Giant) was 85%, the pest or weed control at 500 g/ha ([3]; Setaria faberi, post-emergence, 240 h, Postemergence, 500 g ai/ha, 0 to 100 scale (0 no effect, 100 complete control), read-out: Plant response rating, Foxtail, Giant) was 90% and the pest or weed control at 500 g/ha ([3]; Setaria faberi, pre-emergence, 240 h, Preemergence, 500 g ai/ha, 0 to 100 scale where 0 is no effect and 100 is complete control, approximately ten days, read-out: Plant response rating, Foxtail, Giant) was 95%. For the same compound, the pest or weed control at 125 g/ha [4, 13] was 95%, the pest or weed control at 500 g/ha [4, 14] was 100% and the pest or weed control at 125 g/ha [4, 15] was 100%. For the same compound, the pest or weed control at 500 g/ha [4, 16] was 100%, the pest or weed control at 125 g/ha [5, 13] was 95% and the pest or weed control at 500 g/ha [5, 14] was 100%. It also gave a pest or weed control at 125 g/ha [5, 15] of 100%, a pest or weed control at 500 g/ha [5, 16] of 100% and a pest or weed control at 125 g/ha ([6]; Echinochloa crus-galli, post-emergence, 240 h, Postemergence, 125 g ai/ha, 0 to 100 scale (0 no effect, 100 complete control), read-out: Plant response rating, Barnyardgrass) of 90%. The pest or weed control at 500 g/ha ([6]; Echinochloa crus-galli, post-emergence, 240 h, Postemergence, 500 g ai/ha, 0 to 100 scale (0 no effect, 100 complete control), read-out: Plant response rating, Barnyardgrass) was 90%, the pest or weed control at 500 g/ha ([6]; Echinochloa crus-galli, pre-emergence, 240 h, Preemergence, 500 g ai/ha, 0 to 100 scale where 0 is no effect and 100 is complete control, approximately ten days, read-out: Plant response rating, Barnyardgrass) was 100% and the “Plant response rating, Barnyardgrass” value [6, 12] was 90. It also gave a pest or weed control at 125 g/ha [7, 13] of 95%, a pest or weed control at 500 g/ha [7, 14] of 95% and a pest or weed control at 125 g/ha [7, 15] of 85%. It also gave a pest or weed control at 500 g/ha [7, 16] of 95%, a pest or weed control at 125 g/ha ([8]; Digitaria sanguinalis, post-emergence, 240 h, Postemergence, 125 g ai/ha, 0 to 100 scale (0 no effect, 100 complete control), read-out: Plant response rating, Crabgrass) of 70% and a pest or weed control at 125 g/ha ([8]; Digitaria sanguinalis, pre-emergence, 240 h, Preemergence, 125 g ai/ha, 0 to 100 scale where 0 is no effect and 100 is complete control, approximately ten days, read-out: Plant response rating, Crabgrass) of 70%. The pest or weed control at 500 g/ha ([8]; Digitaria sanguinalis, pre-emergence, 240 h, Preemergence, 500 g ai/ha, 0 to 100 scale where 0 is no effect and 100 is complete control, approximately ten days, read-out: Plant response rating, Crabgrass) was 80% and the “Plant response rating, Crabgrass” value [8, 17] was 90.

`CCCOC(=O)c1nc(C2CC2)nc(N)c1Cl` [Compound 75] was tested, and the “Plant response rating, Goosegrass” value [1, 9] was 0, the “Plant response rating, Goosegrass” value [1, 10] was 0 and the “Plant response rating, Goosegrass” value [1, 11] was 0. The “Plant response rating, Goosegrass” value ([1]; 125 g ai/ha, scale 0 to 100) was 30, the “Plant response rating, Lambsquarters” value [2, 9] was 70 and the “Plant response rating, Lambsquarters” value [2, 10] was 75. For the same compound, the “Plant response rating, Lambsquarters” value [2, 11] was 80, the “Plant response rating, Lambsquarters” value ([2]; 125 g ai/ha, scale 0 to 100) was 100 and the “Plant response rating, Soybean” value (soybean (Glycine max); 16 g ai/ha) was 55. For the same compound, the “Plant response rating, Soybean” value (soybean (Glycine max); 31 g ai/ha) was 60, the “Plant response rating, Soybean” value (soybean (Glycine max); 62 g ai/ha) was 100 and the “Plant response rating, Corn” value (corn (Zea mays); [10]) was 0. For the same compound, the “Plant response rating, Corn” value (corn (Zea mays); [11]) was 30, the “Plant response rating, Corn” value (corn (Zea mays); 125 g ai/ha, scale 0 to 100) was 65 and the “Plant response rating, Foxtail, Giant” value [3, 18] was 90. The “Plant response rating, Foxtail, Giant” value [3, 17] was 90, the “Plant response rating, Foxtail, Giant” value [3, 12] was 75 and the “Plant response rating, Foxtail, Giant” value [3, 19] was 90. For the same compound, the “Plant response rating, Morningglory” value [4, 18] was 90, the “Plant response rating, Morningglory” value [4, 17] was 90 and the “Plant response rating, Morningglory” value [4, 12] was 95. For the same compound, the “Plant response rating, Morningglory” value [4, 19] was 100, the “Plant response rating, Velvetleaf” value [5, 18] was 85 and the “Plant response rating, Velvetleaf” value [5, 17] was 100. The “Plant response rating, Velvetleaf” value [5, 12] was 80, the “Plant response rating, Velvetleaf” value [5, 19] was 95 and the “Plant response rating, Barnyardgrass” value [6, 18] was 85. The “Plant response rating, Barnyardgrass” value [6, 17] was 90, the “Plant response rating, Barnyardgrass” value [6, 12] was 70 and the “Plant response rating, Barnyardgrass” value [6, 19] was 95. For the same compound, the “Plant response rating, Pigweed” value [7, 18] was 90, the “Plant response rating, Pigweed” value [7, 17] was 100 and the “Plant response rating, Pigweed” value [7, 12] was 90. The “Plant response rating, Pigweed” value [7, 19] was 95, the “Plant response rating, Crabgrass” value [8, 18] was 80 and the “Plant response rating, Crabgrass” value [8, 17] was 90. The “Plant response rating, Crabgrass” value [8, 12] was 85 and the “Plant response rating, Crabgrass” value [8, 19] was 90.

From patent US8802597B2, “Herbicidal pyrimidines” (E I du Pont de Nemours and Company, priority 2003, dated 2014)
